{"source": "patent US7838513B2", "about": "“Anti-cancer therapy comprising an H2-blocker, at least one antiinflammatory agent and a cytotoxic agent” (Tiltan Pharma Ltd., priority 2006, dated 2010)", "key": {"[1]": {"test_system": "mouse mammary carcinoma (EMT6/CTX)", "assay": "Suppression of subcutaneous EMT6/CTX tumor growth in mice (tumor size)", "assay_type": "in vivo, mice of the CB6F1 strain", "conditions": "28 days from tumor cell inoculation; i.p.; levamisole 12 mg/Kg, cimetidine 20 mg/Kg; vs control", "experimental": "In the following exemplary embodiments of the present invention, different pharmaceutical compositions of the invention were tested in vivo for the purpose of suppression of tumor growth in mice. The control group received a vehicle containing only non-active ingredients which was compared to groups which received pharmaceutical compositions comprising different active ingredients as described in detail below. 3.5×10^5 cells of mouse mammary carcinoma (EMT6/CTX) were injected subcutaneously in to 7-8 week-old mice of the CB6F1 strain (a cross between Balbc and C57bl), in the center of their backs. The mice were then marked and divided into groups. Typically, each group consisted of 7 to 8 mice. The tumor size was measured twice a week and plotted in a graph. […] The width measurement was also used as an indication for tumor height, and the 0.52 is a normalizing factor. Mice were injected with a specified pharmaceutical composition, 6 days a week. Injection volume was 0.05 mL per 10 g body weight (25 g mice received 0.125 mL). All injections were performed intraperitoneally. The week was divided into two treatment types, cytotoxic treatment and non-cytotoxic treatment days according to the corresponding composition. […] 98% of final solution volume was measured and 2% solutol (liquid) was added. […] 98% of final solution volume was measured and 2% solutol (liquid) was added. […]"}, "[2]": {"test_system": "tumor growth", "conditions": "Example 4 of U.S. Patent Application 20030158118; cited from earlier work"}, "[3]": {"test_system": "tumor growth", "conditions": "Experiments 3 and 4 (FIGS. 3 and 4) in WO03/061566; cited from earlier work"}}, "note": "Entries after “also recorded” stand apart in the source; their conditions may differ."}
{"smiles": "CN/C(=N/CCSCc1nc[nH]c1C)NC#N", "note": "[cimetidine]", "values": [{"measurement": "Effect on tumor growth (tumor size), Example 2, FIG. 2", "setting": "[1]", "value": "neither levamisole (Group 2), nor cimetidine (Group 3), nor their combination (Group 4) had any significant effect on tumor growth; also recorded: did not result in any significant effect on tumor growth; also recorded: neither the H2-blocker (cimetidine) alone, nor levamisole alone demonstrated any significant anti-cancer activity"}, {"measurement": "Inhibition of tumor growth by Cimetidine by itself", "setting": "[2]", "value": "did not inhibit tumor growth to any significant amount"}]}
{"smiles": "O=P1(N(CCCl)CCCl)NCCCO1", "note": "(stereo not shown) [cyclophosphamide]", "values": [{"measurement": "Effect of cyclophosphamide alone on tumor growth", "setting": "[3]", "value": "very moderate effect"}]}
{"smiles": "c1ccc([C@H]2CN3CCSC3=N2)cc1", "note": "[levamisole]", "values": [{"measurement": "Effect on tumor growth (tumor size), Example 2, FIG. 2", "setting": "[1]", "value": "neither levamisole (Group 2), nor cimetidine (Group 3), nor their combination (Group 4) had any significant effect on tumor growth; also recorded: neither the H2-blocker (cimetidine) alone, nor levamisole alone demonstrated any significant anti-cancer activity"}]}
